Results: patent US9623031B2, “Compositions, methods and kits for treating cancer” (priority 2011, dated 2017)

Experiments:
[1] = test system: Friend virus (FV)-induced erythroleukemia; experiment: FV-induced erythroleukemia in FV-infected mice, intraperitoneal treatment; assay type: in vivo, mouse
Description: FV-induced erythroleukemia and production of FV leukemia stem cells (FV-LSCs): BALB/c mice were infected with FV as previously described (Subramanian A et al., J Virol. 2008; 82:382-393; Harandi O F et al., J Clin Invest. 2010; 120:4507-4519). On day 14 after infection, spleens were isolated and a single cell suspension of spleen cells was generated. The cells were filtered through a 70 μm sterile filter and flow-through cells were resuspended in RBC lysis buffer followed by centrifugation. Leukemia stem cells were isolated by FACS. Spleen cells were labeled with anti-Kit, Sca1 (BioLegend, San Diego, Calif.) and M34 antibodies. M34 is a monoclonal antibody that recognizes the envelope protein of SFFV (Chesebro B et al., Virology. 1981; 112:131-144) and was used as previously described (Subramanian A et al., J Virol. 2008; 82:382-393). As indicated M34^+Kit^+Sca1^+ cells were cultured in Methocult media (Stem Cell Technologies Vancouver BC) M3334 supplemented with 200 ng/ml Sonic Hedgehog (Shh), 15 ng/ml bone morphogenetic protein-4 (BMP4) (both from R&D Systems Minneapolis, Minn.), and 50 ng/ml stem cell factor (SCF; Peprotech). For CFU-FV assays, cells were plated in methylcellulose media containing fetal calf serum, but lacking added growth factors as previously described (Mager D L et al., Proc Natl Acad Sci USA. 1981; 78:1703-1707).
Complete blood counts of mice treated with Δ^12-PGJ3 (0.05 mg/kg) were examined. There is no difference in treated mice and untransplanted control mice in terms of white blood cell counts, red blood cell counts or platelet counts. Changes in hematological parameters in FV-infected mice upon treatment with CyPGs were examined. FV-infected Balb/c mice were treated with Δ^12-PGJ3 (0.05 mg/kg) intraperitoneally for 7 d following which the mice were sacrificed and hematological parameters were analyzed on an Advia blood analyzer. FV-infected Δ^12-PGJ3 treated mice were compared to infected vehicle controls. N=5 per group, all data are means±s.e.m. *P<0.05. 3% w/v hydroxypropyl-3-cyclodextrin was used as a vehicle in in vivo experiments. Spleen sizes of FV-infected mice that were treated with either vehicle, 9,10-dihydro-15d-PGJ2 (0.05 mg/kg), or 15d-PGJ2 (0.05 mg/kg) were examined; N=3 pre group. Hematological parameters of Balb/c uninfected, infected, and 15d-PGJ2 treated mice were examined. N=5 per group. All data were means±s.e.m. *P<0.05.
FV-LSC were targeted by 15d-PGJ2 in the spleen of FV-infected mice. FV-infected mice were treated with 15d-PGJ2 or 9,10-dihydro-15d-PGJ2 at 0.05 mg/kg for 7 d. The splenic LSC (M34^+Sca1^+Kit^+) cells were analyzed by flow cytometry on day 14 post infection. […] Uninfected and infected vehicle controls were used for comparison. N=3; *P<0.05. […] The colonies were counted 10-14 days after plating. N=3 mice per group, *p<0.05.

MCL-1 = MCL-1 expression in primary AML cells (real time PCR); assay type: cell-based, human
Procedure: MCL-1 expression in Δ^12-PGJ3 treated AML was examined. MCL-1 is an antiapoptotic gene that belongs to the Bcl-2 family. Total RNA and cDNA were isolated from primary AML cells as indicated above. MCl-1 expression was measured using real time PCR. (Hs01050896-ml, Applied Biosystems).

residual BCR-ABL LSCs = experiment: Secondary transplants from treated BCR-ABL mice (residual LSCs); assay type: in vivo, mouse
Procedure: Secondary transplants to test for residual LSCs after treatment with Δ^12-PGJ3: For the CML model, B6.SJLPtprca Pep3b/BoyJ (CD45.1^+) mice were treated with 5-FU and bone marrow cells enriched in cycling HSCs were isolated followed by infection with MIGR-BCR-ABL virus or control MSCV-GFP virus as described above. The cells were transplanted into C57BL/6 (CD45.2) recipient mice as mentioned earlier. The mice were treated with Δ^12-PGJ3 or vehicle control as indicated. Two weeks after treatment, spleen cells were isolated and transplanted into irradiated secondary C57BL/6 (CD45.2) recipients as described above. Two weeks after secondary transplant, mice were analyzed for WBC counts, splenomegaly and the presence of GFP^+ or CD45.1 donor cells in the bone marrow and spleen by flow cytometry. Secondary transplants were also done with FV infected mice treated with Δ^12-PGJ3 or vehicle control. BALB/c mice were infected with Friend virus as described above. The mice were treated with Δ^12-PGJ3 or vehicle control as indicated. Two weeks after treatment, spleen cells isolated from FV-infected mice and transplanted into BALB/c-Stk^−/− recipient mice (1×10^5 cells per mouse). Five weeks post transplant, the mice with secondary transplants were tested for WBC counts, splenomegaly and for the presence of M34^+Kit^+Sca1^+FV-LSCs by flow cytometry.

[2] = test system: FV-LSCs (M34^+Kit^+Sca1^+); experiment: Apoptosis of FV-LSCs treated ex vivo (annexin V, flow cytometry); assay type: cell-based, mouse; conditions: 36 h
Procedure: Apoptosis of LSCs was performed using annexin V as described below in Supplementary Information and Methods.
On day 14 after infection, spleens were isolated and a single cell suspension of spleen cells was generated. The cells were filtered through a 70 μm sterile filter and flow-through cells were resuspended in RBC lysis buffer followed by centrifugation. Leukemia stem cells were isolated by FACS. Spleen cells were labeled with anti-Kit, Sca1 (BioLegend, San Diego, Calif.) and M34 antibodies. […] As indicated M34^+Kit^+Sca1^+ cells were cultured in Methocult media (Stem Cell Technologies Vancouver BC) M3334 supplemented with 200 ng/ml Sonic Hedgehog (Shh), 15 ng/ml bone morphogenetic protein-4 (BMP4) (both from R&D Systems Minneapolis, Minn.), and 50 ng/ml stem cell factor (SCF; Peprotech).
The LSCs were diluted in DMEM, resuspended using a 16-gauge needle, and collected by centrifugation. 1×10^5 cells were resuspended in 200 μl of binding buffer (0.1 M HEPES with 1.4 M NaCl, 25 mM CaCl2, pH 7.4). Annexin V FITC (BD Biosciences) was incubated with cells for 15 min on ice followed by flow cytometric analysis.
The cells were stained with annexin V-FITC and analyzed by flow cytometry. […] Means±s.e.m. *P<0.001 compared to vehicle (PBS). […] Inset: Effect of rosiglitazone on the apoptosis of LSC. Rosiglitazone (0.1-2.0 μM) was incubated with LSC in the culture media for 36 h as described earlier and the cells were subjected to annexin-V staining followed by flow cytometry. […] LSC were treated ex vivo with indicated concentrations of each compound for 36 h. Mean±s.e.m. shown *P<0.001.

Survivin = Survivin expression in human AML sample (RT-PCR); assay type: cell-based; conditions: 6 h
Procedure: Survivin expression in the human AML sample post Δ^12-PGJ3 treatments was examined. Total RNA was isolated from AML cells with indicated treatments (for 6 h) using Trizol (Invitrogen) cDNA was generated using Superscript II (Invitrogen) and cDNA were quantified by RT-PCR using SYBR green PCR master mix and primers that amplify a 76 nt PCR product. A Taqman probe for GAPDH (Applied biosystems) was used.

Structure (SMILES): CC/C=C\C[C@H](O)C/C=C1/C(=O)C=C[C@@H]1C/C=C\CCCC(=O)O [Δ^12-PGJ3, Δ^12-prostaglandin J3]
- reduction of splenomegaly ([1]; 0.01 mg/kg/day i.p. for 7 days): ~50%
- LSCs (Sca1+Kit+M34+) in the spleen ([1]; 0.05 mg/kg i.p. 7 d, flow cytometry day 14 post infection): completely eradicated
- splenomegaly ([1]; 0.05 and 0.1 mg/kg/day i.p. for 7 days from day 7 post infection): no signs of splenomegaly
- spleen histology (H&E) ([1]; day 14 post infection): better demarcation of peri-arteriolar lymphoid tissue
- total leukocyte and reticulocyte counts ([1]; i.p. 7 days): decreased to normal levels
- Bax expression in spleen ([1]; mouse, in vivo): activation of Bax expression
- Friend virus viral replication ([1]; mouse, in vivo): not the viral replication
- TUNEL staining of splenic sections ([1]; mouse, in vivo): increased apoptosis
- CFU-FV colony formation ([1]; spleen cells of treated mice plated without growth factors): completely reduced to background levels
- p53 expression in total spleen ([1]; treated for 1 week): significant expression of p53 in the spleen
- MCL-1 expression (MCL-1): decreases the expression MCL1
- Kit+Sca1+GFP+ LSCs in spleen of secondary recipients (residual BCR-ABL LSCs; donor cells from treated mice): lacked Kit^+Sca1^+GFP^+ cells
- splenomegaly and WBC counts in secondary recipients (residual BCR-ABL LSCs; donor spleen cells from treated mice, two weeks after secondary transplant): failed to develop splenomegaly or high WBC counts
- increase in apoptosis of FV-LSCs ([2]; 25 nM): ~75%
- apoptosis of FV-LSCs, dose response ([2]; annexin V): identical effect
- survivin expression (Survivin): decreases the expression of survivin
